Measured values as given in PubChem BioAssay AID1224910.

Molecular target: Serine/threonine-protein kinase PAK 2 (Homo sapiens) (UniProt Q13177)
Experiment: PubChem AID 1224910
Details: Caliper in vitro kinase assay, dephosphorylated PAK2

Chain of Serine/threonine-protein kinase PAK 2 (Homo sapiens) (Q13177 whole entry, looked up): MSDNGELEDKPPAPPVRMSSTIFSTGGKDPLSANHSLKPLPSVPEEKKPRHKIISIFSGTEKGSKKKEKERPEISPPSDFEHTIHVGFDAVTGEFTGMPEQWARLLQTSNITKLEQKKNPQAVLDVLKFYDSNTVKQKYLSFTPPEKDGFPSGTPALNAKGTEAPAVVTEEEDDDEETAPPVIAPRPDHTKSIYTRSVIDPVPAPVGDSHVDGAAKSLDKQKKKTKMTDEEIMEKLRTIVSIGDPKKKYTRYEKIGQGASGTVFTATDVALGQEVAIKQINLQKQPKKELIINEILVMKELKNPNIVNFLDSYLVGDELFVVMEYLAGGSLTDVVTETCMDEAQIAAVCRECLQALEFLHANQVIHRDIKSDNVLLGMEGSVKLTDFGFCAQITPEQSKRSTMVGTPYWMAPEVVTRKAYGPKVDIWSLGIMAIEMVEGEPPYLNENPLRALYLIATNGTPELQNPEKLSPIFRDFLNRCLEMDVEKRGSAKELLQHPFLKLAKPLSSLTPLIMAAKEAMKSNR

Question: With `CC(C)NC(=O)N1CC[C@H](N=C2Nc3cc(F)ccc3N(CC(F)F)c3ccc(Cl)cc32)C1` as the molecule, how does the IC50 read?
Answer: The IC50 was 270 nM.
